Molecular target: P-glycoprotein (P-gp) (Homo sapiens, UniProt P08183)
Assay: calcein-AM efflux assay in L-MDR1 vs LLC-PK1 cells
Type: cell-based

Chain of P-glycoprotein (P-gp) (P08183 whole entry): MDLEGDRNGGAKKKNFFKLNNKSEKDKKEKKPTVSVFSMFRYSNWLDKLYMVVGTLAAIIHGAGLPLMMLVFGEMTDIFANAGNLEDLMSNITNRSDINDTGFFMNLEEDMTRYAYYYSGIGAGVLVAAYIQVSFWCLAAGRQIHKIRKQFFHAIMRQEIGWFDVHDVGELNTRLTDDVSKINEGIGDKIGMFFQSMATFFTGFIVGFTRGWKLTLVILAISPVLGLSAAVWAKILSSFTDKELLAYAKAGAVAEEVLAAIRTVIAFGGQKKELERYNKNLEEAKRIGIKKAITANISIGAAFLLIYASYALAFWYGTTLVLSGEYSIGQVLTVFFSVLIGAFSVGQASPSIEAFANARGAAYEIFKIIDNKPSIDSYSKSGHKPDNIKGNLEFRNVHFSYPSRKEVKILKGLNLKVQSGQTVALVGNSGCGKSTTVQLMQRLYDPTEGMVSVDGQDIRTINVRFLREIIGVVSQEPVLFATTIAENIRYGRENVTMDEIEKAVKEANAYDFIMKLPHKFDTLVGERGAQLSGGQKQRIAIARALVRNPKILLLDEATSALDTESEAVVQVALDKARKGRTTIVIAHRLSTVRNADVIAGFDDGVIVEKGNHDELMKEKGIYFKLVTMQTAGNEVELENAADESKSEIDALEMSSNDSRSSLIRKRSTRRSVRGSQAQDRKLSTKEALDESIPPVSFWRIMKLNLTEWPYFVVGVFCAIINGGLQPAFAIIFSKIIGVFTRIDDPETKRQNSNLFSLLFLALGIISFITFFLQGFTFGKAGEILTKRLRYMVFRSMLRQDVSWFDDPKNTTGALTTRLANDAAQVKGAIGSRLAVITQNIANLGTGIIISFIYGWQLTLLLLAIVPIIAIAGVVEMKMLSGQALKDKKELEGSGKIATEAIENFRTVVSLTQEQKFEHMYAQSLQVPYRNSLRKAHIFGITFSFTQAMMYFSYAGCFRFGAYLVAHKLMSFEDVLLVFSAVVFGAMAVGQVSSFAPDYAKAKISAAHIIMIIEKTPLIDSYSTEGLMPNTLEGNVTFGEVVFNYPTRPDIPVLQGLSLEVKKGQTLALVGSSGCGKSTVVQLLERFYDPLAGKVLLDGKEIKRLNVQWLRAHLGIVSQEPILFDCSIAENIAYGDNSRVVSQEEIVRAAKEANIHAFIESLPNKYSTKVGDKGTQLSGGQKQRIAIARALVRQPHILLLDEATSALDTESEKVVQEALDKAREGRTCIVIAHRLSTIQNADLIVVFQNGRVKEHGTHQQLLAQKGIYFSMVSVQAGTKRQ

Structure (SMILES): CC(C)C[C@H]1C(=O)N2CCC[C@H]2[C@]2(O)O[C@](NC(=O)[C@@H]3C=C4c5cccc6[nH]c(Br)c(c56)C[C@H]4N(C)C3)(C(C)C)C(=O)N12 [bromocriptine]
- Ki: 6.52 µM
